Laboratory results as given in patent US20100137315A1, “Sphingosine Kinase Inhibitors and Methods of Their Use” (APOGEE BIOTECHNOLOGY CORPORATION, priority 2005, published 2010).

Columns and labels:
mice = test: Chronic DSS-colitis model of IBD (35-day); type: in vivo, mouse
Protocol: FIG. 8. Effects of Compound 8 on the […] (DAI) in the chronic DSS-colitis model. Mice received 2 cycles (7 days per cycle) of DSS (1.5% cycle 1 and 1% cycle 2), 2 cycles of normal drinking water and were randomized by DAI on Day 28 into groups of 8 mice. The mice were then treated as follows: No DSS (▪)— normal drinking water and orally dosed with PEG400 every day for 7 days (water control); DSS alone (▴)— drinking water containing 1.5% DSS and orally dosed with PEG daily for 7 days; DSS+Compound 8 (▾)-drinking water containing 1.5% DSS and orally dosed with Compound 8 (50 mg/kg) every day for 7 days; DSS+Dipentum (♦)— drinking water containing 1.5% DSS and orally dosed with Dipentum (50 mg/kg). *p<0.001 versus No DSS group.
FIG. 9. Effects of Compound 8 on S1P levels in the colons of the animals in the chronic DSS-colitis model. Colon samples from mice described in FIG. 8 were extracted and assayed for the levels of S1P by LC/MS/MS. Values represent the mean±sd for 8 samples per group; * p<0.05 versus No DSS group.
A 35-day model of IBD was used to evaluate the effectiveness of the SK inhibitor in mice that experience multiple cycles of DSS-induced inflammation. This chronic model is similar to the acute model, except that the DSS concentration in the drinking water is lower and animals receive periodic exposure to DSS (DSS on days 1-7, water on Days 8-13, DSS on day 14-21, water on Days 22-27 and then DSS until the completion of the study on Day 35). In these experiments, treatment of the mice with an SK inhibitor or Dipentum began on Day 28 and continued daily until the completion of the study. The DAI index was monitored every other day until Day 28 and then daily until Day 35. Animals were sacrificed on Day 35, and changes in the colon length and cytokine profiles were measured.
As a final measure of the effects of the SK inhibitors in this chronic model, S1P levels were assayed in the colons of the DSS-treated animals using an LC-MS/MS method. […] Ratios of analyte to internal standard for each sphingolipid were determined. […]

female DBA/1 mice = test: Collagen-Induced Arthritis model; type: in vivo, mouse; conditions: 50 mg/kg orally
Protocol: FIG. 10. Effects of Compound 8 on disease progression in the collagen-induced arthritis (CIA) model in mice. Female DBA/1 mice were injected with collagen, boosted after 3 weeks and then monitored for symptoms of arthritis. Upon disease manifestation, groups of mice were treated for 12 days as follows: (▴) Compound 8 (50 mg/kg given orally each day for 6 days per week); or (▪) vehicle (PEG400 given under the same schedule). On the indicated Day of treatment, the average clinical score (A) and the average hind paw diameter (B) was determined. * p<0.05 versus PEG400 alone group.
The anti-arthritis activities of the SK inhibitor Compound 8 were assessed in the Collagen-Induced Arthritis model. Female DBA/1 mice were injected subcutaneously in the tail with chicken immunization-grade type II collagen emulsified in complete Freund's adjuvant at 2 mg/mL. Three weeks later, the mice received a collagen booster in incomplete Freund's adjuvant and were monitored daily thereafter for arthritic symptoms. Once mice reached a threshold paw thickness and clinical score, they were randomized into the following treatment groups: Compound 8 (50 mg/kg given orally each day for 6 days per week) or vehicle (Polyethyleneglycol 400 given under the same schedule). The severity of disease in each animal was quantified by measurement of the hind paw volume with digital calipers. Each paw was scored based upon perceived inflammatory activity, in which each paw receives a score of 0-3 as follows: 0=normal; 1=mild, but definite redness and swelling of the ankle or wrist, or apparent redness and swelling limited to individual digits, regardless of the number of affected digits; 2=moderate redness and swelling of the ankle and wrist and 3=severe redness and swelling of the entire paw including digits, with an overall score ranging from 0-12. Differences among treatment groups were tested using ANOVA.
On Day 12, the mice were euthanized and their hind limbs were removed, stripped of skin and muscle, formalin-fixed, decalcified and paraffin-embedded. The limbs were then sectioned and stained with hematoxylin/eosin. Tibiotarsal joints were evaluated histologically for severity of inflammation and synovial hyperplasia.

CDK1/cyclinB = CDK1/cyclinB (Homo sapiens, UniProt P06493); test: Kinase selectivity panel; type: biochemical; conditions: read-out: percent of control activity of CDK1/cyclinB
Protocol: (§1) A common problem with previous attempts to develop protein kinase inhibitors is the lack of selectivity toward the target kinase since the majority of these compounds interact with nucleotide-binding domains that are highly conserved among kinases. To determine if compound of this invention are non-selective kinase inhibitors, the effects of the SK inhibitor, Compound 73, on a diverse panel of 20 purified kinases was determined. The compound was tested at a single concentration of 50 μM.

CDK2/cyclinE = CDK2/cyclinE (Homo sapiens, UniProt P24941); test: Kinase selectivity panel; type: biochemical; conditions: read-out: percent of control activity of CDK2/cyclinE
Protocol: as §1

CHK1 = CHK1 (Homo sapiens, UniProt O14757); test: Kinase selectivity panel; type: biochemical; conditions: read-out: percent of control activity of CHK1
Protocol: as §1

EFGR = EFGR (Homo sapiens, UniProt P00533); test: Kinase selectivity panel; type: biochemical; conditions: read-out: percent of control activity of EFGR
Protocol: as §1

IKKα = IKKα (Homo sapiens, UniProt O15111); test: Kinase selectivity panel; type: biochemical; conditions: read-out: percent of control activity of IKKα
Protocol: as §1

MEK kinase 1 = test: Kinase selectivity panel; type: biochemical; conditions: 50 μM
Protocol: as §1

P38 MAP kinase 1 = P38 MAP kinase 1 (Homo sapiens, UniProt Q16539); test: Kinase selectivity panel; type: biochemical; conditions: read-out: percent of control activity of P38 MAP kinase 1
Protocol: as §1

P38 MAP kinase 2 = P38 MAP kinase 2 (Homo sapiens, UniProt Q15759); test: Kinase selectivity panel; type: biochemical; conditions: read-out: percent of control activity of P38 MAP kinase 2
Protocol: as §1

Protein kinase C α = Protein kinase C α (Homo sapiens, UniProt P17252); test: Kinase selectivity panel; type: biochemical; conditions: read-out: percent of control activity of Protein kinase C α
Protocol: as §1

Protein kinase C ε = Protein kinase C ε (Homo sapiens, UniProt Q02156); test: Kinase selectivity panel; type: biochemical; conditions: read-out: percent of control activity of Protein kinase C ε
Protocol: as §1

Sequence of P38 MAP kinase 1 (Q16539 whole entry): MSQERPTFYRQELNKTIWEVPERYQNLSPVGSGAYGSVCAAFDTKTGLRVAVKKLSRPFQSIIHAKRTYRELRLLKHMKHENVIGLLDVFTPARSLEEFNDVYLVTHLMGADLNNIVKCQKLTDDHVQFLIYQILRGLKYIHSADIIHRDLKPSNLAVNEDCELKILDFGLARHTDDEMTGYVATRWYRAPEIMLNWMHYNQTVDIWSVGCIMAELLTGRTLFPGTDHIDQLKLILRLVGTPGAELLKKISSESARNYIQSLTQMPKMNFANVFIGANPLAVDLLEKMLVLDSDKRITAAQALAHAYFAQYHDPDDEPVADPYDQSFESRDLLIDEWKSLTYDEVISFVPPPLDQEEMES
Sequence of CDK1/cyclinB (P06493 whole entry, species assumed, the tested form may be a part): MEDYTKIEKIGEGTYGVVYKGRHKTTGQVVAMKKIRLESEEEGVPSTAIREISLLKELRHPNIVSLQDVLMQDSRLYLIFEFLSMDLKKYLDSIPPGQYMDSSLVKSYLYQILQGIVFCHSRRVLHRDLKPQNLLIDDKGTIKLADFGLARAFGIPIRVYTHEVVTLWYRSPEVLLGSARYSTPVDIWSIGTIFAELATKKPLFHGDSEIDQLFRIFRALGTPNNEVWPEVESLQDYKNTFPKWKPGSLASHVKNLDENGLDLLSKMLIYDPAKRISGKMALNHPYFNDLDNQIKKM
Sequence of CDK1/cyclinB (P14635 whole entry partner, species assumed, the tested form may be a part): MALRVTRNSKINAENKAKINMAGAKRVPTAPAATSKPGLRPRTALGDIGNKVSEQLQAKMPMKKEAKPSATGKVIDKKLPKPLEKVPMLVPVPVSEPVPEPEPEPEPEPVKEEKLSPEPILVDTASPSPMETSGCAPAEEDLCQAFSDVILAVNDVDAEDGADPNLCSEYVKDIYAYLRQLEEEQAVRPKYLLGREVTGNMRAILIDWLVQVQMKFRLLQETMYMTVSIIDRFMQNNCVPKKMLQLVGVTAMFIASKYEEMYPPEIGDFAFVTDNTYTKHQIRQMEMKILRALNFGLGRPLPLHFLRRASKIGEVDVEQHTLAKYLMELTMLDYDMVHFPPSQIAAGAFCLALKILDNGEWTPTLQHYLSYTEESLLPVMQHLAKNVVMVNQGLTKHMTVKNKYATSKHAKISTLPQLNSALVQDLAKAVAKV
Sequence of Protein kinase C ε (Q02156 whole entry): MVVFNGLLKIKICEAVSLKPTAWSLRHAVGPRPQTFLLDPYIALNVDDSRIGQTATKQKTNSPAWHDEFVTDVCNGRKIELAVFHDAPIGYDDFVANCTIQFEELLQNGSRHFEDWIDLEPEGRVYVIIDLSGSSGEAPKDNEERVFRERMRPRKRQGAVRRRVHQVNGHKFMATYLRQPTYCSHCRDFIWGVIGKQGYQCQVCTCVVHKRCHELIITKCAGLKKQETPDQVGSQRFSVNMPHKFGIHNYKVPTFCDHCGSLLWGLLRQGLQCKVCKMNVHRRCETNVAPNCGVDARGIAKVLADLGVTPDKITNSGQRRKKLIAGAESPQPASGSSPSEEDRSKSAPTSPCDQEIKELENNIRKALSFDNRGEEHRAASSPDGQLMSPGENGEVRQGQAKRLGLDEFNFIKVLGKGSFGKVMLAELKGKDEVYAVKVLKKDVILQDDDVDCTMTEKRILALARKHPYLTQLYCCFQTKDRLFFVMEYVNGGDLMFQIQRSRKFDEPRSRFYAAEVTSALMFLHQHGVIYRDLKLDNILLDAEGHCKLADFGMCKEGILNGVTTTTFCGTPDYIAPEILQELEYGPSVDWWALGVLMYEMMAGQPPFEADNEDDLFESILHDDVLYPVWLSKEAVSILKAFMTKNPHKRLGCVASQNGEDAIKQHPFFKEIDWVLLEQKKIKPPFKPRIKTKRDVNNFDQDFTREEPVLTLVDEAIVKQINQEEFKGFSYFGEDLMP
Sequence of IKKα (O15111 whole entry, species assumed): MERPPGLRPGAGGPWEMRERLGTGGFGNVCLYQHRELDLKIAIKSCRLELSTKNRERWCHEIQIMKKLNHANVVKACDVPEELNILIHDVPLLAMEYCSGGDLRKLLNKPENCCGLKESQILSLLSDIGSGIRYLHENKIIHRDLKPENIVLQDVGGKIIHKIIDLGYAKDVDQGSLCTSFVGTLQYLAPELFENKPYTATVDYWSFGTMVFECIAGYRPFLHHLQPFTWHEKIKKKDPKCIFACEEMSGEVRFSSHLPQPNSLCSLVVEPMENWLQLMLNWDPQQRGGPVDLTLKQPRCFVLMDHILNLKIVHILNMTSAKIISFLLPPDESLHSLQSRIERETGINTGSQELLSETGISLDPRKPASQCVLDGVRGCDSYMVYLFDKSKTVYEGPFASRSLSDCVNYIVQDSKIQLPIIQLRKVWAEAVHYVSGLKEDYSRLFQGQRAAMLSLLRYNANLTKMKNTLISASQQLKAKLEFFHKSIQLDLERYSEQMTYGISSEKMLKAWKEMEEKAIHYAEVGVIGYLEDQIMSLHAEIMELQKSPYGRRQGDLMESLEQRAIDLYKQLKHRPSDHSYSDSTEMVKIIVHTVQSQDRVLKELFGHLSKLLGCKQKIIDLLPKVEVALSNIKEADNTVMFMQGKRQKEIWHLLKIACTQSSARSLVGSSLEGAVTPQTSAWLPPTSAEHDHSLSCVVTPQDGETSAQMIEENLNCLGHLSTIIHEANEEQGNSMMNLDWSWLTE
Sequence of P38 MAP kinase 2 (Q15759 whole entry): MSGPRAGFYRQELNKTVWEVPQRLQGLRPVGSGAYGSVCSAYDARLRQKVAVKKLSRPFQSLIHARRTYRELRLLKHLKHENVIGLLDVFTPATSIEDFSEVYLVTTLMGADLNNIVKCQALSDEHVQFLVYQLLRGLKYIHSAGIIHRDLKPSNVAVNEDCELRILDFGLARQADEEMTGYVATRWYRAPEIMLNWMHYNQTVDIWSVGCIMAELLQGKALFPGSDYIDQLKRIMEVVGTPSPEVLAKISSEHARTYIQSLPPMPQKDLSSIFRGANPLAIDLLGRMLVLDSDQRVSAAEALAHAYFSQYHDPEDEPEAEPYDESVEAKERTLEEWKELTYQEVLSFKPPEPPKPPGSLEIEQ
Sequence of CHK1 (O14757 whole entry, species assumed): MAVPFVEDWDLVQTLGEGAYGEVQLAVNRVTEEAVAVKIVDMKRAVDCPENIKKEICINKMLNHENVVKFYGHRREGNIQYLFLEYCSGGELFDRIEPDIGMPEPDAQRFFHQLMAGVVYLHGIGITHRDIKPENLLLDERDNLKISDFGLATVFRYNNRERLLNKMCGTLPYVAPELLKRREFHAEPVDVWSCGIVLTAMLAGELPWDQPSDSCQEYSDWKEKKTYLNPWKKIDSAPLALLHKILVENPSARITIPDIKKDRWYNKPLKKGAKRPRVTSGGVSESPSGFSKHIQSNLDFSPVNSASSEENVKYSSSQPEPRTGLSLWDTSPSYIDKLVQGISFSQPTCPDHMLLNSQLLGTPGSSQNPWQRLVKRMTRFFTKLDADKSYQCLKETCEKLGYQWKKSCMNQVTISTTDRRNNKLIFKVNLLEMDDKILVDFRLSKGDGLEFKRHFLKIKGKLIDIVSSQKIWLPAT
Sequence of EFGR (P00533 25-1210): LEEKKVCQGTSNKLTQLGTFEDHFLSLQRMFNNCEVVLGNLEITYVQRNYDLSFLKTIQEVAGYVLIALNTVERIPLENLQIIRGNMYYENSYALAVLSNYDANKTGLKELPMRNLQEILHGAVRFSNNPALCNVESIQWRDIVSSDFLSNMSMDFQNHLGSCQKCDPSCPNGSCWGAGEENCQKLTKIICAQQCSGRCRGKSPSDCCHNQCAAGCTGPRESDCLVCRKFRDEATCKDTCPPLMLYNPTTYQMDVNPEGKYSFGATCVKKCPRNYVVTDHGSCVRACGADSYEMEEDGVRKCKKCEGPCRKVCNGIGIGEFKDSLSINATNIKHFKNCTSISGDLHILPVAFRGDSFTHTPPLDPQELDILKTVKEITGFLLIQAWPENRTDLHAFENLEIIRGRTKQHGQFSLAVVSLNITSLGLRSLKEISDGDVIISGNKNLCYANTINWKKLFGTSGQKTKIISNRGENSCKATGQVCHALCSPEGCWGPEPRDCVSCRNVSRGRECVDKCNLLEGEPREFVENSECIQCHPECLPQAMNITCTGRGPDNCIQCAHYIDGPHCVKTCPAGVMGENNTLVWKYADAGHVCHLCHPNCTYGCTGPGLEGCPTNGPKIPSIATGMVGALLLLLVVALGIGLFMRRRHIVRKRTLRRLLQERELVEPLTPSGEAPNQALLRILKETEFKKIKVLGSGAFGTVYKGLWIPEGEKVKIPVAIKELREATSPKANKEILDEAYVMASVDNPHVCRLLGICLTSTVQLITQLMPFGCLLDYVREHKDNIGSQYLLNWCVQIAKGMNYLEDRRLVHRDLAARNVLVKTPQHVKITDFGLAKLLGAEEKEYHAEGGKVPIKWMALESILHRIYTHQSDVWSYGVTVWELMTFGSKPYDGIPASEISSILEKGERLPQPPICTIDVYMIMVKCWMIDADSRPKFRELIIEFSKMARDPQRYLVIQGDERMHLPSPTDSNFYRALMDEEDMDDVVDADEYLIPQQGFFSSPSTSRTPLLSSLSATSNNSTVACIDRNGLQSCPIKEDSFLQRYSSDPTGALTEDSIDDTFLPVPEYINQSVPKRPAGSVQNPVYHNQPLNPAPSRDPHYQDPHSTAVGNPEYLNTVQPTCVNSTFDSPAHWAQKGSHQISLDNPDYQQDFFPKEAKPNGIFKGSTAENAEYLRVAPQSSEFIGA

Compound	colon length (mice; 50 mg/kg oral daily Days 28-35, Day 35)	increase in DAI during third DSS exposure (mice; 50 mg/kg oral daily Days 28-35, P<0.001 on Day 35)	S1P levels in colon (LC-MS/MS) (mice; oral 50 mg/kg daily, 7 days prior to sacrifice)	reduction in clinical score vs vehicle (female DBA/1 mice; 6 days per week, Day 12)	reduction in the increase in hind paw thickness vs vehicle (female DBA/1 mice; 6 days per week, Day 12)	histologic damage of tibiotarsal joints (female DBA/1 mice; Day 12)	inflammation response (Average Clinical Score, Average Hind Paw Diameter) (female DBA/1 mice; significant decreases beginning at Day 4)	remaining activity at 50 µM (CDK1/cyclinB)	remaining activity at 50 µM (CDK2/cyclinE)	remaining activity at 50 µM (CHK1)	remaining activity at 50 µM (EFGR)	remaining activity at 50 µM (IKKα)	percent of control activity of MEK kinase 1 (MEK kinase 1)	remaining activity at 50 µM (P38 MAP kinase 1)	remaining activity at 50 µM (P38 MAP kinase 2)	remaining activity at 50 µM (Protein kinase C α)	remaining activity at 50 µM (Protein kinase C ε)
CCCC(=O)Oc1ccc(C=CC(=O)Nc2nc(-c3ccc(Cl)cc3)cs2)cc1OC [Compound 8, Butyric acid 4-{2-[4-(4-chloro-phenyl)-thiazol-2-ylcarbamoyl]-vinyl}-2-methoxy-phenyl ester]	5.8±0.1 cm	significantly suppressed	significant reductions	65%	72%	significantly reduced	dramatically slowed	–	–	–	–	–	–	–	–	–	–
Clc1ccc(-c2csc(NCc3ccccc3)n2)cc1 [Compound 73, Benzyl-[4-(4-chloro-phenyl)-thiazol-2-yl]-amine]	–	–	–	–	–	–	–	100%	102 ± 7%	124%	99 ± 9%	152 ± 7%	104 ± 3%	88 ± 1%	101%	92 ± 1%	91 ± 2%
